Source: patent US12338263B2, “Antibacterial aminoglycoside derivatives” (priority 2019, dated 2025)
≈ marks a conversion by molar mass, not a printed value. Read-outs that look alike come from different tables or passages of the source.

Assays:
Assay in all cases: Antibacterial effect (MIC), micro-liquid dilution method (CLSI)
Type in all cases: cell-based
[1] = system: E. coli ATCC BAA-2523; settings: Escherichia coli, ATCCBAA2523
Method: (§1) Three strains Enterobacteriaceae E. coli ATCC 25922, E. coli ATCC BAA-2523, K. pneumonia ATCC BAA-1705 were used to determine the Minimum Inhibitory Concentration (MIC) of each compound by the micro-liquid dilution method according to the requirements of the Institute of Clinical and Laboratory Standard (CLSI). 2-fold series diluted compounds (with a final concentration range […]) were added to a round bottom 96-well plate (Catalog #3788, Corning). A single clone of fresh bacteria on the plate of Mueller Hinton II Agar (MHA, Cat. No. 211438, BD BBL™) after overnight culture was picked and suspended in sterile saline to adjust the concentration to 1×10^8 CFU/mL, and then diluted to 5×10^5 CFU/mL by Cation-Adjusted Mueller Hinton II Broth (MHB, Catalog #212332, BD BBL™), 100 μL of which was added to the round bottom 96-well plate containing the drug. The plate was inverted and incubated at 37° C. for 20-24 hours, and the MIC value was read. The lowest drug concentration that inhibits bacterial growth was defined as MIC.

[2] = system: E. coli ATCC 25922; settings: Escherichia coli, ATCC25922
Method: as §1

[3] = system: K. pneumoniae ATCC BAA-1705; settings: Klebsiella pneumoniae, ATCCBAA1705
Method: as §1

Row | MIC ([1]; E. coli ATCC BAA-2523, 37° C., 20-24 hours, read-out: MIC) [µM] | MIC ([2]; E. coli ATCC 25922, 37° C., 20-24 hours, read-out: MIC) [µM] | MIC ([3]; K. pneumoniae ATCC BAA-1705, 37° C., 20-24 hours, read-out: MIC) [µM] | SMILES | MIC [1] [µM] | MIC [2] [µM] | MIC [3] [µM]
1 | 4 (≈ 3.03 µg/mL) | 2 (≈ 1.52 µg/mL) | 4 (≈ 3.03 µg/mL) | CN[C@@H]1[C@@H](O)[C@@H](O[C@@H]2[C@@H](O)[C@H](O[C@H]3OC(CNCCOCCONC(=N)NCC(F)F)=CC[C@H]3N)[C@@H](N)C[C@H]2NC(=O)[C@@H](O)CCN)OC[C@]1(C)O [Compound 2] | – | – | –
2 | – | – | – | CN[C@@H]1[C@@H](O)[C@@H](O[C@@H]2[C@@H](O)[C@H](O[C@H]3OC(CNCCCONC(=N)N)=CC[C@H]3N)[C@@H](N)C[C@H]2NC(=O)[C@@H](O)CCN)OC[C@]1(C)O [Compound 3] | 1 (≈ 0.664 µg/mL) | 0.5 (≈ 0.332 µg/mL) | 0.25 (≈ 0.166 µg/mL)
